Test results reported in patent US8642801B2 (BHI Limited Partnership, priority 2003, dated 2014).

Biological target: T1, Aβ40 and Aβ42 peptides in plasma and brain of TgCRND8 mice (Homo sapiens, UniProt P05067)
T1 construct: ELISA using Human Aβ40 and Aβ42 Fluorometric ELISA kits from Biosource; from tissue; host or cells: plasma and brain homogenate of TgCRND8 transgenic mice (hAPP transgene)
Experiment: Short term treatment in adult transgenic CRND8 mice overexpressing βAPP: Aβ levels in plasma and brain by ELISA
Format: in vivo, Mouse
Conditions: TgCRND8 mice
Text: Transgenic mice, […]8, expressing the human amyloid precursor protein (hAPP) develop a pathology resembling Alzheimer's disease. In particular, high levels of Aβ40 and Aβ 42 have been documented in the plasma and the brain of these animals at 8-9 weeks of age, followed by early accumulation of amyloid plaques similar to the senile plaques observed in AD patients. These animals also display progressive cognitive deficits that parallel the appearance of degenerative changes. See, […], et al., J. Biol. Chem. 276, 21562-70 (2001). The short term therapeutic effect of 19 compounds of the invention was studied. […] The following abbreviations are used to designate these animals from the 3rd and 4th generation backcross in the present protocol: TgCRND8-2.B6C3F1(N3); TgCRND8-2.B6C3F1(N4). Baseline animals (Group 1) consisted of naive TgCRND8-2. B6C3F1(N3) at 11±1 weeks of age. These mice were used to determine the Aβ levels in the plasma and brain of naive transgenic animals at the initiation of treatment. […] At the end of the treatment periods, plasma and perfused brains were collected for quantification of Aβ levels. […] Plasma samples were immediately frozen and stored at -80° C. pending analysis. The brains were removed, frozen, and stored at -80° C. awaiting analysis. […] Samples were spun at 15000 g for 20 minutes and the supernatants were transferred to fresh tubes. […] The tubes were vortexed for 30 seconds and frozen at -80° C. […] Samples were thawed at room temperature, sonicated at 80° C. for 15 minutes and frozen again. This cycle was repeated 3 times to ensure homogeneity and samples were returned to -80° C. pending analysis. Aβ levels were evaluated in plasma and brain samples by ELISA using Human Aβ40 and Aβ42 Fluorometric ELISA kits from Biosource (Cat. […] In short, samples were thawed at room temperature, sonicated for 5 minutes at 80° C. (sonication for brain homogenates; no sonication for plasma samples) and kept on ice. Aβ peptides were captured using 100 μl of the diluted samples to the plate and incubated without shaking at 4° C. overnight. The samples were aspirated and the wells were rinsed 4 times with wash buffer obtained from the Biosource ELISA kit. The anti-Aβ40 or anti-Aβ42 rabbit polyclonal antiserum (specific for the Aβ40 or Aβ42 peptide) was added (100 μl) and the plate was incubated at room temperature for 2 hours with shaking. The wells were aspirated and washed 4 times before adding 100 μl of the alkaline phosphatase labeled anti-rabbit antibody and incubating at room temperature for 2 hours with shaking. The plates were then rinsed 5 times and the fluorescent substrate (100 μl) was added to the plate. The plate was incubated for 35 minutes at room temperature and the plate was read using a titer plate reader at an excitation wavelength of 460 nm and emission at 560 nm Compounds were scored based on their ability to modulate levels of Aβ peptides in the plasma and the cerebral soluble/insoluble levels in the brain. Levels of Aβ observed in the plasma and brain of treated animals were normalized using values from vehicle-treated (water) or methylcellulose-treated control groups and ranked according to the strength of the pharmacological effect. Increases in the levels of Aβ peptides are indicated using “+” symbols, while decreases in the levels of Aβ peptides are indicated using “-” symbols. The strongest effects are recorded as “+++” or “- - -” while the weakest are shown as “+” or “-”.

[1] = Brain Homogenate Methylcellulose Group, Day 14, 250 mg/kg daily oral
[2] = Brain Homogenate Methylcellulose Group, Day 28, 250 mg/kg daily oral
[3] = Plasma Methylcellulose Group, Day 28, 250 mg/kg daily oral in 1% methylcellulose, normalized to methylcellulose control
[4] = Brain Homogenate Vehicle Group, Day 14, 250 mg/kg daily
[5] = Brain Homogenate Vehicle Group, Day 28, 250 mg/kg daily
[6] = Plasma Vehicle Group, Day 14, 250 mg/kg daily subcutaneous, normalized to water vehicle control

O=S(=O)(O)CCCNC1C2CC3CC(C2)CC1C3 (stereo not drawn) [BZ, 3-(2-adamantyl)amino-1-propanesulfonic acid]
Brain homogenate Aβ40 Change Insoluble [1]: −−− (decreases of 39% or more are scored as “− − −”)
Brain homogenate Aβ42 Change Insoluble [1]: −− (decreases of 20 to 38% are scored as “− −”)
Brain homogenate Aβ40 Change Insoluble [2]: −− (decreases of 20 to 38% are scored as “− −”)
Brain homogenate Aβ40 Change Soluble [2]: −− (decreases of 20 to 38% are scored as “− −”)
Brain homogenate Aβ42 Change Insoluble [2]: −− (decreases of 20 to 38% are scored as “− −”)
Plasma Aβ40 Change (Plasma Methylcellulose Group, Day 14, 250 mg/kg daily oral in 1% methylcellulose, normalized to methylcellulose control): + (increases in the levels of Aβ (relative to untreated control) of 20 to 39% are scored as “+”)
Plasma Aβ40 Change [3]: ++ (increases of 40 to 69% are scored as “++”)
Plasma Aβ42 Change [3]: ++ (increases of 40 to 69% are scored as “++”)

O=S(=O)(O)CCCNC12CC3CC(CC(C3)C1)C2 [BW, 3-(1-adamantyl)amino-1-propanesulfonic acid]
Brain homogenate Aβ40 Change Insoluble [1]: −−− (decreases of 39% or more are scored as “− − −”)
Brain homogenate Aβ42 Change Insoluble [1]: −−− (decreases of 39% or more are scored as “− − −”)
Brain homogenate Aβ42 Change Soluble [1]: −− (decreases of 20 to 38% are scored as “− −”)
Brain homogenate Aβ40 Change Insoluble [2]: − (Decreases in the levels of Aβ of 5 to 19% are scored as “−”)
Brain homogenate Aβ40 Change Soluble [2]: − (Decreases in the levels of Aβ of 5 to 19% are scored as “−”)
Brain homogenate Aβ42 Change Insoluble [2]: −− (decreases of 20 to 38% are scored as “− −”)
Brain homogenate Aβ42 Change Soluble [2]: − (Decreases in the levels of Aβ of 5 to 19% are scored as “−”)
Plasma Aβ42 Change [3]: + (increases in the levels of Aβ (relative to untreated control) of 20 to 39% are scored as “+”)

CC(C)(C)NCCCS(=O)(=O)O [BX, 3-(t-butyl)amino-1-propanesulfonic acid]
Brain homogenate Aβ40 Change Insoluble [4]: −−− (decreases of 39% or more are scored as “− − −”)
Brain homogenate Aβ40 Change Soluble [4]: − (Decreases in the levels of Aβ of 5 to 19% are scored as “−”)
Brain homogenate Aβ42 Change Insoluble [4]: −−− (decreases of 39% or more are scored as “− − −”)
Brain homogenate Aβ42 Change Soluble [4]: −− (decreases of 20 to 38% are scored as “− −”)
Brain homogenate Aβ40 Change Insoluble [5]: −−− (decreases of 39% or more are scored as “− − −”)
Brain homogenate Aβ40 Change Soluble [5]: −−− (decreases of 39% or more are scored as “− − −”)
Brain homogenate Aβ42 Change Insoluble [5]: − (Decreases in the levels of Aβ of 5 to 19% are scored as “−”)
Brain homogenate Aβ42 Change Soluble [5]: −− (decreases of 20 to 38% are scored as “− −”)
Plasma Aβ40 Change [6]: +++ (increases of 70% or higher are scored as “+ + +”)
Plasma Aβ42 Change [6]: ++ (increases of 40 to 69% are scored as “++”)
Plasma Aβ40 Change (Plasma Vehicle Group, Day 28, 250 mg/kg daily subcutaneous, normalized to water vehicle control): +++ (increases of 70% or higher are scored as “+ + +”)
